Drawing on patent US9296741B2, “Bromodomain inhibitors” (priority 2012, dated 2016), this text covers Ki and half-life for 15 compounds.

Data set [1] concerns the target human BRD4 first bromodomain (BDI_K57-E168) (Homo sapiens (Human), UniProt O60885). Briefly: TR-FRET bromodomain binding assay, BRD4 first bromodomain. A general note: In TR-FRET formats the signal depends on donor and acceptor labels being close together.
The nature of data set [2]: Rat liver microsome stability assay. Type of data set: in vitro ADME. The note with it: rat liver microsomes (male Sprague-Dawley), 0.5 μM test compound, 0.25 mg/mL microsomal protein, pH 7.4, 37° C.; read-out: Stability in rat liver microsomes (t1/2 in minutes). (Liver microsomes are a subcellular fraction often used to study metabolism.)
The nature of data set [3]: Human liver microsome stability assay. In kind it is in vitro ADME. Particulars: both sexes.
In data set [4] the target is human BRD4 second bromodomain (BDII_E352-M457) (Homo sapiens (Human), UniProt O60885). Description: TR-FRET bromodomain binding assay, BRD4 second bromodomain.
Data set [5] is described as follows: Mouse liver microsome stability assay. In kind it is in vitro ADME.
Where [6] appears, read: male, CD1, mouse, microsomes, pH 7.4.

Take `Cn1cc(-c2cc(C3=CCNCC3)ccc2OCC2CC2)c2cc[nH]c2c1=O` [Example 340, 4-[2-(cyclopropylmethoxy)-5-(1,2,3,6-tetrahydropyridin-4-yl)phenyl]-6-methyl-1,6-dihydro-7H-pyrrolo[2,3-c]pyridin-7-one]: the Ki (in general, a measure of affinity in units of concentration, obtained from inhibition or displacement) in data set [1] turned out to be 942 nM; in data set [4], 1250 nM. The half-life at 0.5 μM is 4 min in data set [2]; greater than 120 min in data set [3] (human liver microsomes, 0.5 μM test compound, 0.25 mg/mL microsomal protein, pH 7.4, 37° C., read-out: Stability in human liver microsomes (t1/2 in minutes)); 9 min in data set [5] (mouse liver microsomes (male CD1), 0.5 μM test compound, 0.25 mg/mL microsomal protein, pH 7.4, 37° C., read-out: Stability in mouse liver microsomes (t1/2 in minutes)).
Regarding `Cc1ccc(F)cc1Oc1ccc(S(C)(=O)=O)cc1-c1cn(C)c(=O)c2[nH]ccc12` [Example 187, 4-[2-(5-fluoro-2-methylphenoxy)-5-(methylsulfonyl)phenyl]-6-methyl-1,6-dihydro-7H-pyrrolo[2,3-c]pyridin-7-one], the Ki in data set [1] stood at 24.8 nM; in data set [4], 8.2 nM. For the same compound, the half-life at 0.5 μM in data set [2] worked out at 4 min; in data set [3] (human, microsomes, pH 7.4) it was 9 min; in data set [5] (setting [6]), 5 min.
As for `Cn1cc(-c2ccccc2C(=O)N2CCOCC2)c2cc[nH]c2c1=O` [Example 61, 6-methyl-4-[2-(morpholin-4-ylcarbonyl)phenyl]-1,6-dihydro-7H-pyrrolo[2,3-c]pyridin-7-one], the Ki in data set [1] was greater than 13000 nM; in data set [4] it was greater than 22200 nM. In addition, the half-life at 0.5 μM in data set [2] is greater than 120 min; in data set [3] (human, microsomes, pH 7.4), greater than 120 min; in data set [5] (setting [6]) it was greater than 120 min.
`CN1CCC[C@H]1COc1ccc(S(C)(=O)=O)cc1-c1cn(C)c(=O)c2[nH]ccc12` [Example 222, 6-methyl-4-[2-{[(2S)-1-methylpyrrolidin-2-yl]methoxy}-5-(methylsulfonyl)phenyl]-1,6-dihydro-7H-pyrrolo[2,3-c]pyridin-7-one]: the Ki in data set [1] came out at 225 nM; in data set [4] it was 969 nM. The half-life at 0.5 μM in data set [2] worked out at 80 min; in data set [3] (human, microsomes, pH 7.4), 65 min; in data set [5] (setting [6]), 98 min.
Taken in the same sequence, the figures for `CN(C)c1ccc(NC(=O)c2ccc(Oc3ccc(F)cc3F)c(-c3cn(C)c(=O)c4[nH]ccc34)c2)cc1` [Example 120, 4-(2,4-difluorophenoxy)-N-[4-(dimethylamino)phenyl]-3-(6-methyl-7-oxo-6,7-dihydro-1H-pyrrolo[2,3-c]pyridin-4-yl)benzamide] were 190 nM, 304 nM, 12 min, 19 min and 10 min.
Taken in the same sequence, the figures for `Cn1cc(-c2cc(C(=O)NCc3ccc(OC(F)(F)F)cc3)ccc2Oc2ccc(F)cc2F)c2cc[nH]c2c1=O` [Example 126, 4-(2,4-difluorophenoxy)-3-(6-methyl-7-oxo-6,7-dihydro-1H-pyrrolo[2,3-c]pyridin-4-yl)-N-[4-(trifluoromethoxy)benzyl]benzamide] were 2000 nM, 768 nM, 21 min, 100 min and 25 min.
The matching figures for `Cn1cc(-c2cc(S(C)(=O)=O)ccc2Oc2ccc3c(c2)CCC3)c2cc[nH]c2c1=O` [Example 191, 4-[2-(2,3-dihydro-1H-inden-5-yloxy)-5-(methylsulfonyl)phenyl]-6-methyl-1,6-dihydro-7H-pyrrolo[2,3-c]pyridin-7-one]: 17.8 nM, 8.8 nM, 6 min, 7 min and 2 min.
For `CC(C)c1ccc(Oc2ccc(S(C)(=O)=O)cc2-c2cn(C)c(=O)c3[nH]ccc23)cc1` [Example 192, 6-methyl-4-{5-(methylsulfonyl)-2-[4-(propan-2-yl)phenoxy]phenyl}-1,6-dihydro-7H-pyrrolo[2,3-c]pyridin-7-one], the Ki in data set [1] stood at 51.3 nM; in data set [4], 9.6 nM. Moreover, the half-life at 0.5 μM in data set [2] amounted to 5 min; in data set [3] (human, microsomes, pH 7.4), 9 min; in data set [5] (setting [6]) it was 3 min.
Taken in the same sequence, the figures for `Cn1cc(-c2cc(C(=O)N3CCN(C(=O)N4CCCC4)CC3)ccc2Oc2ccc(F)cc2F)c2cc[nH]c2c1=O` [Example 119, 4-[2-(2,4-difluorophenoxy)-5-{[4-(pyrrolidin-1-ylcarbonyl)piperazin-1-yl]carbonyl}phenyl]-6-methyl-1,6-dihydro-7H-pyrrolo[2,3-c]pyridin-7-one] were 44.4 nM, 22.5 nM, 24 min, 14 min and 2 min.
For `Cn1cc(-c2cc(S(C)(=O)=O)ccc2Oc2cc(F)ccc2F)c2cc[nH]c2c1=O` [Example 173, 4-[2-(2,5-difluorophenoxy)-5-(methylsulfonyl)phenyl]-6-methyl-1,6-dihydro-7H-pyrrolo[2,3-c]pyridin-7-one], the Ki came out at 15.7 nM in data set [1] and 6.6 nM in data set [4]. For the same compound, the half-life at 0.5 μM stood at 5 min in data set [2]; 38 min in data set [3] (human, microsomes, pH 7.4); 16 min in data set [5] (setting [6]).
`Cn1cc(-c2cc(S(C)(=O)=O)ccc2Oc2cc(F)cc(F)c2)c2cc[nH]c2c1=O` [Example 176, 4-[2-(3,5-difluorophenoxy)-5-(methylsulfonyl)phenyl]-6-methyl-1,6-dihydro-7H-pyrrolo[2,3-c]pyridin-7-one]: the results for the Ki in data set [1] and in data set [4] were 21.3 nM and 6 nM, respectively. In addition, the half-life at 0.5 μM in data set [2] was 8 min; in data set [3] (human, microsomes, pH 7.4), 48 min; in data set [5] (setting [6]), 29 min.
With `Cn1cc(-c2cc(S(C)(=O)=O)ccc2Oc2ccc3cccnc3c2)c2cc[nH]c2c1=O` [Example 188, 6-methyl-4-[5-(methylsulfonyl)-2-(quinolin-7-yloxy)phenyl]-1,6-dihydro-7H-pyrrolo[2,3-c]pyridin-7-one], the values for the Ki in data set [1] and in data set [4] were 29.4 nM and 18 nM, respectively. The half-life at 0.5 μM in data set [2] was determined as 22 min; in data set [3] (human, microsomes, pH 7.4) it was 26 min; in data set [5] (setting [6]), 6 min.
On to `Cn1cc(-c2cc(C(=O)Nc3ccc4cn[nH]c4c3)ccc2Oc2ccc(F)cc2F)c2cc[nH]c2c1=O` [Example 118, 4-(2,4-difluorophenoxy)-N-(1H-indazol-6-yl)-3-(6-methyl-7-oxo-6,7-dihydro-1H-pyrrolo[2,3-c]pyridin-4-yl)benzamide], for which the half-life at 0.5 μM came out at 34 min in data set [2]; 81 min in data set [3] (human, microsomes, pH 7.4); 18 min in data set [5] (setting [6]).
Consider `Cn1cc(-c2ccccc2C(O)c2ccc(Cl)cc2)c2cc[nH]c2c1=O` (stereo not drawn) [Example 140, 4-{2-[(4-chlorophenyl)(hydroxy)methyl]phenyl}-6-methyl-1,6-dihydro-7H-pyrrolo[2,3-c]pyridin-7-one], for which the half-life at 0.5 μM was 13 min in data set [2]; 19 min in data set [3] (human, microsomes, pH 7.4); 18 min in data set [5] (setting [6]).
With `Cn1cc(-c2cc(C(=O)NCCN3CCCC3=O)ccc2Oc2ccc(F)cc2F)c2cc[nH]c2c1=O` [Example 122, 4-(2,4-difluorophenoxy)-3-(6-methyl-7-oxo-6,7-dihydro-1H-pyrrolo[2,3-c]pyridin-4-yl)-N-[2-(2-oxopyrrolidin-1-yl)ethyl]benzamide], the half-life at 0.5 μM in data set [2] came to 16 min; in data set [3] (human, microsomes, pH 7.4), 8 min; in data set [5] (setting [6]), 2 min.
